Results from patent publication US8703161B2, “Skin repair compositions comprising circadian gene activators and a synergistic combination of Sirt1 gene activators” (ELC Management, LLC, priority 2007, dated 2014).
Ends that are not written are not given here.

Test system: UVB-irradiated human keratinocytes
Assay: Survival of UVB-irradiated keratinocytes, MTS viability (Example 1)
Format: cell-based
Settings: for decreased survival rate: 45 mJ/cm2 UV
Method: Orsirtine™ ((SEQ ID No. 8) G-L-Y-D-N-L-E) and resveratrol, […], were tested for their ability to improve survival of UVB-irradiated human keratinocytes.
Normal human keratinocytes were cultured in Epilife Medium with Human Keratinocyte Growth Supplement. The cells were sub-cultured into 96-well plates (Costar). Keratinocytes were pretreated with resveratrol (25 μM) and Orsirtine (1%, 3%) by themselves, and in a complex of resveratrol (25 μM) and Orsirtine™ (3%). Keratinocytes were treated with the undiluted complex and with dilutions of 1:2, 1:4 and 1:8 (complex: Epilife media).
Keratinocytes were incubated with these treatments overnight at 37° C.; 5% CO2. After 24 hours, the treatment was aspirated and keratinocytes were washed once in D-PBS. 100 μl of D-PBS was added for the irradiation. The cells were subjected to UVB irradiation at 0, 45, 90 and 135 mJ/cm^2 UVB. After the irradiation, D-PBS was removed. Keratinocytes were post treated appropriately and incubated overnight at 37° C.; 5% CO2. The next day, cells were assayed for viability, utilizing MTS reagent (CellTiter96, Promega). Absorbance readings were taken on the SpectraMax190 spectrophotometer (Molecular Devices) at 490 nm following an approximate two hour incubation at 37° C.; 5% CO2.

[1] = Orsirtine 3% alone, listed as Orsirtine ™

| Compound | decreased survival rate (just resveratrol (25 μM)) [%] | Increased survival after 90 mJ/cm^2 UV (Resveratrol 25 μM alone) [%] | Increased survival after 135 mJ/cm^2 UV (Resveratrol 25 μM alone) [%] | decreased survivability (UVB of 90 mJ/cm^2, 25 μM Resveratrol by itself) [%] | decreased survival rate (just Orsirtine 3%) [%] | Increased survival after 90 mJ/cm^2 UV (Orsirtine 1% alone) [%] | Increased survival after 135 mJ/cm^2 UV (Orsirtine 1% alone) [%] | Increased survival after 90 mJ/cm^2 UV (Orsirtine 3% alone) [%] | Increased survival after 135 mJ/cm^2 UV (Orsirtine 3% alone) [%] | Increased survival after 90 mJ/cm^2 UV [1] [%] | Increased survival after 135 mJ/cm^2 UV [1] [%] |
| --- | --- | --- | --- | --- | --- | --- | --- | --- | --- | --- | --- |
| Oc1ccc(/C=C\c2cc(O)cc(O)c2)cc1 [Resveratrol, 3,5,4′-trihydroxystilbene, reference compound] | 20 | −15 | 22 | 15 |  |  |  |  |  |  |  |
| GLYDNLE [Orsirtine™, peptide G-L-Y-D-N-L-E, INCI Water (and) Glycerin (and) Oryza Sativa (Rice) Extract, from ISP Vincience] |  |  |  |  | 8 | −17 | 5 | 11 | 26 | 11 | 26 |
